In paper PMC9379334, “Determination of ceftriaxone in human plasma using liquid chromatography–tandem mass spectrometry” (Wellcome Open Research, 2022):
Like-named read-outs stand apart in the source and are kept apart here.

Tests used:
[1] = Stability of ceftriaxone in spiked human plasma under different storage conditions (LC-MS/MS); type: physicochemical; conditions: for Stability, Precipitated 4hrs in RT: protein precipitated; for Stability in plasma, F/T cycle 5 / Stability in plasma, F/T cycle 3: freeze -80°C/thaw RT; for Stability in plasma, RT 24 hrs / Stability in plasma, RT 48 hrs: RT about 23°C
Procedure: (§1) Stock solution 10 mg/ml was evaluated at -80°C and at +4°C for 5 days, and in room temperature (+24°C) for 8 hrs. The lowest concentration of working solution 50 µg/ml was also evaluated at -80°C for 5 days and at room temperature (24°C) for 5 hrs. Spiked plasma stored at ambient temperature and at 4°C for 48 h was used to evaluate short-term stability. Long-term stability of spiked samples at -80°C was evaluated after 7 months. Freeze-thaw stability was evaluated for plasma samples and haemolysed plasma samples for five cycles. The samples were stored at -80°C for 24 h followed by unassisted thawing at room temperature for 2–3 h and subsequent re-freezing at -80°C. The stability of precipitated samples stored at ambient temperature (about 23°C) for 4 h was also evaluated. The stability of extracted samples in the LC autosampler kept at 10°C was evaluated by re-injecting the calibrators and QC samples 65 h after initial injection. The acceptance criteria for stability was achieved when the RSD of stability samples was below ±15%, and the accuracy of mean concentrations was within ±15% of nominal concentration.
(§2) The stability samples were quantified using a calibration curve in CPD plasma. Stability samples in CPD plasma were compared to the average measured concentration of CPD QC samples added in the same run. The CPD calibration curve was also used to quantify heparin and EDTA stability samples due to limited supply of volunteer donor blood. However, since EDTA and heparin have different recovery from plasma compared to CPD, a direct comparison would be biased. Thus, stability samples were instead compared with the average measured concentration of the precision and accuracy of each anticoagulant.

[2] = Stability of extracted samples in the LC autosampler at 10°C; type: physicochemical, human
[3] = cited from earlier work
[4] = cited from earlier work; remark: listed apart in the source
[5] = Stability of ceftriaxone stock and working solutions; conditions: for Stock solution stability: stock solution 10 mg/ml in water; for Working solution stability: weakest working solution 50 µg/ml
Procedure: as §1, §2

[6] = Stability of ceftriaxone in acidic (pH about 2) and neutral pH dilutions; conditions: +4°C
[7] = QC1, 2.97 µg/ml, CPD haemolysis plasma
[8] = QC1, 2.97 µg/ml, CPD plasma, vs average measured CPD QC concentration in same run
[9] = QC1, 2.97 µg/ml, EDTA plasma, vs average of four precision and accuracy batches
[10] = QC1, 2.97 µg/ml, EDTA plasma, vs average of four precision and accuracy batches for this anticoagulant
[11] = QC1, 2.97 µg/ml, Li-heparin plasma, vs average of four precision and accuracy batches
[12] = QC1, 2.97 µg/ml, Na-heparin haemolysis plasma
[13] = QC1, 2.97 µg/ml, Na-heparin plasma, vs average of four precision and accuracy batches
[14] = QC3, 155 µg/ml, CPD haemolysis plasma
[15] = QC3, 155 µg/ml, CPD plasma, vs average measured CPD QC concentration in same run
[16] = QC3, 155 µg/ml, EDTA plasma, vs average of four precision and accuracy batches
[17] = QC3, 155 µg/ml, Li-heparin plasma, vs average of four precision and accuracy batches
[18] = QC3, 155 µg/ml, Na-heparin haemolysis plasma
[19] = QC3, 155 µg/ml, Na-heparin plasma, vs average of four precision and accuracy batches

## CO/N=C(\C(=O)N[C@@H]1C(=O)N2C(C(=O)O)=C(CSc3nc(=O)c(=O)[nH]n3C)CS[C@H]12)c1csc(N)n1 [ceftriaxone]
[1]; [7]
  Stability, Precipitated 4hrs in RT: 99.3%
  Stability in plasma, F/T cycle 5: 88.4%
[1]; [8]
  Stability, Precipitated 4hrs in RT: 94.2%
  Stability in plasma, RT 24 hrs: 106%
  Stability in plasma, RT 48 hrs: 100%
  Stability in plasma, F/T cycle 3: 97.7%
  Stability in plasma, F/T cycle 5: 94.0%
  Stability in plasma, 4°C 24 hrs: 102%
  Stability in plasma, 4°C 48 hrs: 103%
  Stability in plasma, -80°C 224 days: 103%
[1]; [9]
  Stability, Precipitated 4hrs in RT: 98.0%
  Stability in plasma, F/T cycle 3: 103%
  Stability in plasma, F/T cycle 5: 103%
  Stability in plasma, -80°C 224 days: 95.5%
[1]; [10]
  Stability in plasma, RT 24 hrs: 105%
  Stability in plasma, 4°C 24 hrs: 113%
[1]; [11]
  Stability, Precipitated 4hrs in RT: 103%
  Stability in plasma, F/T cycle 3: 95.7%
  Stability in plasma, F/T cycle 5: 99.5%
  Stability in plasma, 4°C 24 hrs: 98.3%
  Stability in plasma, -80°C 224 days: 96.0%
[1]; QC1, 2.97 µg/ml, Li-heparin plasma, vs average of four precision and accuracy batches for this anticoagulant
  Stability in plasma, RT 24 hrs: 105%
[1]; [12]
  Stability, Precipitated 4hrs in RT: 91.9%
  Stability in plasma, F/T cycle 3: 91.3%
  Stability in plasma, F/T cycle 5: 97.6%
[1]; [13]
  Stability, Precipitated 4hrs in RT: 96.8%
  Stability in plasma, F/T cycle 3: 100%
  Stability in plasma, F/T cycle 5: 98.7%
  Stability in plasma, 4°C 24 hrs: 109%
  Stability in plasma, -80°C 224 days: 93.7%
[1]; QC1, 2.97 µg/ml, Na-heparin plasma, vs average of four precision and accuracy batches for this anticoagulant
  Stability in plasma, RT 24 hrs: 103%
[1]; [14]
  Stability, Precipitated 4hrs in RT: 94.3%
  Stability in plasma, F/T cycle 5: 98.6%
[1]; [15]
  Stability, Precipitated 4hrs in RT: 101%
  Stability in plasma, RT 24 hrs: 99.8%
  Stability in plasma, RT 48 hrs: 99.6%
  Stability in plasma, F/T cycle 3: 99.1%
  Stability in plasma, F/T cycle 5: 95.0%
  Stability in plasma, 4°C 24 hrs: 101%
  Stability in plasma, -80°C 224 days: 109%
[1]; [16]
  Stability, Precipitated 4hrs in RT: 90.9%
  Stability in plasma, F/T cycle 3: 97.9%
  Stability in plasma, F/T cycle 5: 95.5%
  Stability in plasma, 4°C 24 hrs: 104%
  Stability in plasma, -80°C 224 days: 92.8%
[1]; [17]
  Stability, Precipitated 4hrs in RT: 91.4%
  Stability in plasma, F/T cycle 3: 96.1%
  Stability in plasma, F/T cycle 5: 94.2%
  Stability in plasma, 4°C 24 hrs: 108%
  Stability in plasma, -80°C 224 days: 98.8%
[1]; QC3, 155 µg/ml, Li-heparin plasma, vs average of four precision and accuracy batches for this anticoagulant
  Stability in plasma, RT 24 hrs: 101%
[1]; [18]
  Stability, Precipitated 4hrs in RT: 88.8%
  Stability in plasma, F/T cycle 3: 90.4%
  Stability in plasma, F/T cycle 5: 88.5%
[1]; [19]
  Stability, Precipitated 4hrs in RT: 88.2%
  Stability in plasma, F/T cycle 3: 97.5%
  Stability in plasma, F/T cycle 5: 93.7%
  Stability in plasma, 4°C 24 hrs: 106%
  Stability in plasma, -80°C 224 days: 94.5%
[1]; ambient temperature (about 23°C) for 4 h prior to transfer to Phree plate
  Stability of protein precipitated samples: good stability
[1]; five cycles, QC samples in all anticoagulants, including plasma with moderate haemolysis
  Freeze-thaw stability in plasma: good stability
[1]; up to 24 h at ambient temperature (about 23°C) and 4°C in all anticoagulants, CPD plasma up to 48 h
  Short-term stability in plasma: confirmed
[2]; extracted samples in LC autosampler 10°C up to 65 h, full set of calibrators and QC re-injected
  Variation in QC concentrations: less than 10%
[2]; extracted samples in LC autosampler 10°C, 65 h
  Loss, original injection vs 65-h injection: about 20%
[3]; 0.5-g intravenous dose
  Mean plasma concentration 24 h after administration: 5300 ng/mL
[3]; 1-g intravenous dose
  Mean plasma concentration 24 h after administration: 9300 ng/mL
[3]; 2-g intravenous dose
  Mean plasma concentration 24 h after administration: 15100 ng/mL
[3]; standard 2-g daily dose, critically ill patients with sepsis
  Population mean peak levels: below 200 μg/ml
[4]; acid hydrolysis with 0.1 M hydrochloric acid, 30 minutes, ref Shrestha et al. 24
  Degradation: 19.6%
[4]; post-extraction dilution of samples using 0.5% formic acid in water, ref Herrera-Hidalgo et al. 31
  LC-stability: 4 h
[5]; +4°C for 5 days
  Stock solution stability: above 98%
[5]; -80°C for 5 days
  Stock solution stability: above 98%
  Working solution stability: about 98%
[5]; workbench +24°C for 8 hrs
  Stock solution stability: above 98%
[5]; workbench +24°C for 5 hrs
  Working solution stability: about 98%
[6]; 10 mM ammonium formate containing 2% formic acid (pH about 2), dark, 48 hrs
  Degradation: 95%
[6]; ammonium formate 10 mM with 2% formic acid (pH about 2), 2 days (48 hrs)
  Remaining of initial concentration: 5%
[6]; ammonium formate 10 mM with 2% formic acid (pH about 2), 3 days
  Remaining of initial concentration: less than 1%
[6]; dilutions in solutions with neutral pH, 2 and 3 days
  Remaining of initial concentration: 95–100%
